Data reported in patent publication US5585382A, “Polycyclic and heterocyclic chromophores for bis-imide tumoricidals” (The DuPont Merck Pharmaceutical Company, priority 1995, dated 1996).
≈ marks a conversion by molar mass, not a printed value. Where two headings read alike, the source gives them in different places.

Columns and labels:
[1] = tested on: Murine leukemia L1210 cells; experiment: In vitro growth inhibition of L1210 cells (MTT, 72 hr); format: cell-based; conditions: Mus musculus, read-out: L1210 IC50
Method: (§1) The reagents for tissue culture were purchased from GIBCO (Grand Island, N.Y.). 5-Dimethylthiazol-2-yl)-2,5-diphenyl tetrazolium bromide (MTT) was purchased from Sigma Chemical Company (St. Louis, Mo.). All agents were prepared as 2 mg/ml stock solutions in DMSO. MTT was prepared as a 1 mg/ml stock solution in Dulbecco's phosphate buffered saline (PBS). All stocks were stored frozen in the dark at -20° C.
(§2) Clone A human colon cancer cells were isolated from the heterogeneous DLD-1 colon tumor line and maintained as previously described (Dexter, D. L.; Barbosa, J. A.; Calabresi, P. Cancer Research 1979, 39, 1020; Dexter, D. L.; Spremulli, E. M.; Fligiel, A.; Barbosa, J. A.; Vogel, R.; Van Vorhees, A.; Calabresi, P. Am. J. Med. 1981, 71, 949.). Murine leukemia L1210 cells were maintained in RPMI-L medium as described (Chen, S.-F.; Ruben, R. L.; Dexter, D. L. Cancer Research 1986, 46, 5014.). All cell lines were incubated at 37° C. in a humidified atmosphere of 5% CO2 -95% air.
(§3) Exponentially growing L1210 cells (1×10^3), or Clone A cells (8×10^2) in 0.1 ml medium were seeded in a 96-well microtiter plate on day 0. On day one, 0.1 ml aliquots of medium containing graded concentrations of test compounds were added to the cell plates. After incubation at 37° C. in a humidified incubator for 72 hr, the plates containing L1210 cells were centrifuged briefly and 100 μl of the growth medium was removed. Cell cultures were incubated with 50 μl of MTT for 4 h at 37° C. (12). The resulting purple formazan precipitate was solubilized with 200 μl of 0.04 N HCl in isopropyl alcohol. Absorbance was read in a Titertek Multiskan MCC scanning well spectrophotometer (Flow Laboratories) at a test wavelength of 570 nm and a reference wavelength of 630 nm. The absorbances were stored on a floppy disk on an IBM-XT and uploaded onto a VAX computer. IC50 values were determined by a computer program that fit the data to the following equation:
(§4) Y=((Am -Ao)/(1+(X/IC50)^n))+Ao
(§5) where Am =absorbance of the control cells; Ao =absorbance of the cells in the presence of highest compound concentration; Y=observed absorbance; X=compound concentration; IC50 =dose of compound that inhibits the number of population doublings of cells to one half that of the number of population doublings of the control cells; and n equals the slope of the straight portion of the curve.
(§6) The values reported in the table are from at least one experiment performed in eight replicates. If more than one experiment was performed, the number reported is the average of all the trials

[2] = tested on: Clone A human colon cancer cells; experiment: In vitro growth inhibition of Clone A cells (MTT, 72 hr); format: cell-based; conditions: read-out: Clone A IC50
Method: as §1, §2, §3, §4, §5, §6

SMILES	IC50 ([1]; L1210 cells, 72 hr, MTT) [µg/mL]	IC50 ([2]; Clone A cells, 72 hr, MTT) [µg/mL]	IC50 ([1]; L1210, 72 h) [µg/mL]	IC50 ([2]; 72 h) [µg/mL]
CS(=O)(=O)O.O=C1c2cccc3c2c(cc2occc23)C(=O)N1CCCCNCCCN1C(=O)c2cccc3c2c(cc2occc23)C1=O [Example 90, 4-[3-(Naphtho[2,1-b]furan-5,6-dicarboximido)propylamino]-1-(naphtho[2,1-b]furan-5,6-dicarboximido)butane Hydromethanesulfonate]	0.013	0.017		
COc1ccc2cc3c4c(cccc4c2c1)C(=O)N([C@H](C)CNCCNC[C@@H](C)N1C(=O)c2cccc4cc([N+](=O)[O-])cc(c24)C1=O)C3=O [Example 122]			0.211 (≈ 0.32 µM)	0.023 (≈ 0.0349 µM)
CS(=O)(=O)O.Cc1ccc2cc3c4c(cccc4c2c1)C(=O)N(CCCCNCCCN1C(=O)c2cccc4c2c(cc2ccc(C)cc24)C1=O)C3=O [Example 41, 4-[3-(6-Methylphenanthrene-1,10-dicarboximido)propylamino]-1-(6-methylphenanthrene-1, 10-dicarboximido)butane Hydromethanesulfonate]			0.317	0.804
C[C@H](CNCCNC[C@@H](C)N1C(=O)c2cccc3c2c(cc2ccc(F)cc23)C1=O)N1C(=O)c2cccc3cc([N+](=O)[O-])cc(c23)C1=O [Example 120]			0.261 (≈ 0.403 µM)	0.013 (≈ 0.0201 µM)
CS(=O)(=O)O.O=C1c2cc([N+](=O)[O-])cc3c2c(cc2ccccc23)C(=O)N1CCCCNCCCN1C(=O)c2cc([N+](=O)[O-])cc3c2c(cc2ccccc23)C1=O [Example 50, 4-[3-(3-Nitrophenanthrene-1,10-dicarboximido)propylamino]-1-(3-nitrophenanthrene-1, 10-dicarboximido)butane Hydromethanesulfonate]			0.126	0.032
O=C1c2cccc3c2c(c(-c2ccccc2)c2ccccc23)C(=O)N1CCCCNCCCN1C(=O)c2cccc3c2c(c(-c2ccccc2)c2ccccc23)C1=O [Example 48, 4-[3-(9-Phenylphenanthrene-1,10-dicarboximido)propylamino]-1-(9-phenylphenanthrene-1, 10-docarboximido)butane Hydromethanesulfonate]			0.773	1.46
CS(=O)(=O)O.CS(=O)(=O)O.C[C@@H](CNCCNC[C@H](C)N1C(=O)c2cccc3c2c(cc2ccc([N+](=O)[O-])cc23)C1=O)N1C(=O)c2cccc3c2c(cc2ccc([N+](=O)[O-])cc23)C1=O [Example 52, (S,S)-1,2-bis-[2-(6-Nitrophenanthrene-1,10-dicarboximido)propylamino]ethane Dihydromethanesulfonate]			0.082	0.044
CS(=O)(=O)O.O=C1c2cccc3c2c(c(C(F)(F)F)c2ccccc23)C(=O)N1CCCCNCCCN1C(=O)c2cccc3c2c(c(C(F)(F)F)c2ccccc23)C1=O [Example 45, 4-(3-[9-(Trifluoromethyl)phenanthrene-1,10-dicarboximido]propylamino)-1-[9-(trifluoromethyl)phenanthrene-1,10-dicarboximido]butane Hydromethanesulfonate]			0.3	1.05
CS(=O)(=O)O.CS(=O)(=O)O.C[C@H](CNCCNC[C@@H](C)N1C(=O)c2cccc3c2c(cc2cnccc23)C1=O)N1C(=O)c2cccc3cc([N+](=O)[O-])cc(c23)C1=O [Example 113, (R,R)-1-[2-(7-Azaphenanthrene-1,10-dicarboximido)propylamino]-2-[2-(3-nitronaphthalene-1,8-dicarboximido)propylamino]ethane Dihydromethanesulfonate]	0.008	0.0003		
C[C@H](CNCCNC[C@@H](C)N1C(=O)c2cccc3c2c(cc2ccc(C(F)(F)F)cc23)C1=O)N1C(=O)c2cccc3cc([N+](=O)[O-])cc(c23)C1=O [Example 121]			0.397 (≈ 0.569 µM)	0.032 (≈ 0.0459 µM)
CS(=O)(=O)O.CS(=O)(=O)O.CS(=O)(=O)O.Nc1cc2c3c(cc4ccccc4c3c1)C(=O)N(CCCCNCCCN1C(=O)c3cc(N)cc4c3c(cc3ccccc34)C1=O)C2=O [Example 53, 4-[3-(3-Aminophenanthrene-1,10-dicarboximido)propylamino]-1-(3-aminophenanthrene-1,10-dicarboximido)butane Trihydromethanesulfonate]			0.453	0.755
CS(=O)(=O)O.O=C1c2cccc3c2c(cc2cccc([N+](=O)[O-])c23)C(=O)N1CCCCNCCCN1C(=O)c2cccc3c2c(cc2cccc([N+](=O)[O-])c23)C1=O [Example 51, 4-[3-(5-Nitrophenanthrene-1,10-dicarboximido)propylamino]-1-(5-nitrophenanthrene-1, 10-dicarboximido)butane Hydromethanesulfonate]			0.205	0.747
CS(=O)(=O)O.CS(=O)(=O)O.C[C@H](CNCCNC[C@@H](C)N1C(=O)c2cccc3c2c(cc2cccnc23)C1=O)N1C(=O)c2cccc3cc([N+](=O)[O-])cc(c23)C1=O [Example 110, (R,R)-1-[2-(5-Azaphenanthrene-1,10-dicarboximido)propylamino]-2-[2-(3-nitronaphthalene-1,8-dicarboximido)propylamino]ethane Dihydromethanesulfonate]	0.183	0.006		
CS(=O)(=O)O.Cc1cnc2c(c1)cc1c3c(cccc32)C(=O)N(CCCCNCCCN2C(=O)c3cccc4c3c(cc3cc(C)cnc34)C2=O)C1=O [Example 10, 4-[3-(7-Methyl-5-azaphenanthrene-1,10-dicarboximido)propylamino]-1-(7-methyl-5-azaphenanthrene-1, 10-dicarboximido)butane Hydromethanesulfonate]	0.588	0.346		
CS(=O)(=O)O.CS(=O)(=O)O.C[C@H](CNCCNC[C@@H](C)N1C(=O)c2cc([N+](=O)[O-])cc3c2c(cc2ncccc23)C1=O)N1C(=O)c2cccc3cc([N+](=O)[O-])cc(c23)C1=O [Example 116, (R,R)-1-[2-(3-Nitro-8-azaphenanthrene-1,10-dicarboximido)propylamino]-2-[2-(3-nitronaphthalene-1,8-dicarboximido)propylamino]ethane Dihydromethanesulfonate]			0.012	0.003
O=C1c2cc([N+](=O)[O-])cc3c2c(cc2cnccc23)C(=O)N1CCCCNCCCN1C(=O)c2cc([N+](=O)[O-])cc3c2c(cc2cnccc23)C1=O [Example 16, 4-[3-(3-Nitro-7-azaphenanthrene-1,10-dicarboximido)propylamino]-1-(3-nitro-7-azaphenanthrene-1, 10-dicarboximido)butane 2.6-Hydromethanesulfonate]			< 0.01	0.002 (≈ 0.00287 µM)
COc1ccc2c(c1)cc1c3c(cccc32)C(=O)N(CCCCNCCCN2C(=O)c3cccc4c3c(cc3cc(OC)ccc34)C2=O)C1=O.CS(=O)(=O)O [Example 54, 4-[3-(7-Methoxyphenanthrene-1,10-dicarboximido)propylamino]-1-(7-methoxyphenanthrene-1,10-dicarboximido)butane Hydromethanesulfonate]			0.198	0.615
CS(=O)(=O)O.CS(=O)(=O)O.Cc1nc2cc3c4c(cccc4c2s1)C(=O)N([C@H](C)CNCCNC[C@@H](C)N1C(=O)c2cccc4c2c(cc2nc(C)sc24)C1=O)C3=O [Example 83, (R,R) -1,2-bis-[2-(2-Methylnaphtho[2,1-d]thiazole-5,6-dicarboximido)propylamino]ethane Dihydromethanesulfonate]	< 0.01	0.004		
COc1cc2cc3c4c(cccc4c2cc1OC)C(=O)N(CCCCNCCCN1C(=O)c2cccc4c2c(cc2cc(OC)c(OC)cc24)C1=O)C3=O.CS(=O)(=O)O [Example 55, 4-[3-(6,7-Dimethoxyphenanthrene-1,10-dicarboximido)propylamino]-1-(6,7-dimethoxyphenanthrene-1,10-dicarboximido)butane Hydromethanesulfonate]			0.356	5.43
CS(=O)(=O)O.N#Cc1ccc2cc3c4c(cccc4c2c1)C(=O)N(CCCCNCCCN1C(=O)c2cccc4c2c(cc2ccc(C#N)cc24)C1=O)C3=O [Example 49, 4-[3-(6-Cyanophenanthrene-1,10-dicarboximido)propylamino]-1-(6-cyanophenanthrene-1, 10-dicarboximido)butane Hydromethanesulfonate]			0.026	0.007
